Measurements published in publication PMC12369846, “Structural Insights into Isovaleryl-Coenzyme A Dehydrogenase: Mechanisms of Substrate Specificity and Implications of Isovaleric Acidemia-Associated Mutations” (Research, 2025).
Where a chain is given by its changes, count along the chain named. Names and notes keep the numbering of the source. One block for each molecule: values may come before it.

Tests used:
[1] = target: T1, human IVD (isovaleryl-CoA dehydrogenase) (Homo sapiens, UniProt P26440); assay: cryo-EM structure; format: binding; details: noncovalent cofactor, 4 FAD per tetramer; FAD added to buffer; pH 7.4; 2.55 Å
T1 construct: residues 33-426 (transit peptide removed), N-terminal 8xHis tag, pET-28a, E. coli BL21(DE3)
T1 sequence (P26440 33-426): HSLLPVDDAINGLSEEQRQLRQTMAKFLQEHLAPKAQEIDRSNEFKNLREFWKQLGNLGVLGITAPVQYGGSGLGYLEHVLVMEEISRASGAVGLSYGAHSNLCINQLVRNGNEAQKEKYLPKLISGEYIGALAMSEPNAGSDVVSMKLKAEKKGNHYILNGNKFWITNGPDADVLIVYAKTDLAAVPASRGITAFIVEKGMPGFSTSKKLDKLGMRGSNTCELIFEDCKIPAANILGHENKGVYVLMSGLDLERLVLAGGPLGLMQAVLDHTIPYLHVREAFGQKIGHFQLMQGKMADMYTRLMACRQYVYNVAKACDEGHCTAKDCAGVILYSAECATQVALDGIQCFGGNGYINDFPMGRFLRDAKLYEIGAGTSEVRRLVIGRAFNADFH

[2] = target: T2, human IVD (isovaleryl-CoA dehydrogenase) (Homo sapiens, UniProt P26440, E286A); assay: surface plasmon resonance; format: binding; details: read-out: KDapp
T2 construct: residues 33-426 (transit peptide removed), N-terminal 8xHis tag, pET-28a, E. coli BL21(DE3)
T2 sequence (P26440 33-426 E286A): T1 sequence (P26440 33-426) with E254A

[3] = target: T3, Isovaleryl-CoA dehydrogenase (IVD), human, wild type, residues 33-426 (human), P26440; assay: cryo-EM structure; purified IVD from SEC in 50 mM tris-HCl pH 7.4, 150 mM NaCl with added FAD; no acyl-CoA; 2.55 Å; details: remark: other sources report otherwise
T3 chain: T1 sequence (P26440 33-426)

[4] = target: the molecule itself; assay: cryo-EM structure; purified IVD E286A incubated with isovaleryl-CoA or butyryl-CoA at 37 °C for 15 min, FAD bound; 3.35 and 2.91 Å

Molecule: Cc1cc2nc3c(=O)[nH]c(=O)nc-3n(C[C@H](O)[C@H](O)[C@H](O)COP(=O)(O)OP(=O)(O)OC[C@H]3O[C@@H](n4cnc5c(N)ncnc54)[C@H](O)[C@@H]3O)c2cc1C [FAD]
cryo-EM structure [1]: resolved in the form of only combining with FAD molecules

B1: Isovaleryl-CoA dehydrogenase (IVD), human, wild type, residues 33-426, P26440 33-426 (enzyme)
chain: T1 sequence (P26440 33-426)
stoichiometry N [3]: 4

B2: Isovaleryl-CoA dehydrogenase (IVD), human, E286A mutant, residues 33-426 (enzyme, UniProt P26440 33-426, looked up)
chain: T1 sequence (P26440 33-426) with E254A
notes: human isovaleryl-CoA dehydrogenase (IVD), residues 33 to 426, catalytic-base mutant made by PCR on the WT plasmid; Used for the cryo-EM structures with isovaleryl-CoA and butyryl-CoA; also called IVD E286A; source: E. coli BL21 (DE3), purified (Ni-NTA, SEC on Superdex 200)
binding result [4]: binds

Further lines, results first:

Kd [2]: 494 nM
Molecule: CCCC(=O)SCCNC(=O)CCNC(=O)[C@H](O)C(C)(C)COP(=O)(O)OP(=O)(O)OC[C@H]1O[C@@H](n2cnc3c(N)ncnc32)[C@H](O)[C@@H]1OP(=O)(O)O [butyryl-CoA]

Kd [2]: 848 nM
Molecule: CC(C)CC(=O)SCCNC(=O)CCNC(=O)[C@H](O)C(C)(C)COP(=O)(O)OP(=O)(O)OC[C@H]1O[C@@H](n2cnc3c(N)ncnc32)[C@H](O)[C@@H]1OP(=O)(O)O [isovaleryl-CoA]
